# Measured values reported in US6329000A, “Extract of pine needle and the use thereof” (priority 1999, dated 2001).
# Experiments:
# blood-lipid = test: Hypolipidemic test in rabbits on high fat diet; assay type: in vivo, rabbit; settings: positive control 0.3 g/kg/d
# Experimental: Experimental animals: 60 Beijing white rabbits with big ears, all male with body weight of 1.5-2 kg.
# Drugs and reagents: cholesterol (produced at Beijing Chemical Reagent Company). Propyl thiooxyuracil tablet (refers to PTV hereafter, produced in Germany, 50 mg each tablet), lard (prepared by ourselves). The extract powder from pine needle of the invention (refers to the power of pine needle hereafter). Inostitol hexanicotinate tablet (produced by the second Pharmaceutical Factory of Beijing, 0.2 each tablet). The kits of total cholesterol, triglyceride, high density lipoprotein, and low density lipoprotein (produced by Beijing Zhongsheng Biotechnical Company).
# Methods: The white rabbits with big ears were divided into 5 groups at random after raised for 10 days with normal diet. 10 rabbits each group. The high fat diet was given after taking blood from the helicine veins of the fasting rabbits in the morning. Determined the blood-lipid of the blood samples. The high fat diet included cholesterol 2 g/kg (body weight)/d, lard 0.5 g/kg/d, PTV 12.5 mg/kg/d. In the forth group, gave […] of the powder of pine needle along with the high fat diet to the rabbits of (the prevention group). Took blood from the fasting rabbits again and determined their body weights after 15 days of high-fat diet. Then stopped the high-fat diet and changed it for normal diet: (1) blank control group: giving distilled water 10 ml each day with the gavage method; (2) positive control group: giving Inositol hexnicotinate tablets, 0.3 g/kg/d; (3) low dose group: giving the powder of pine needle, 0.25 g/kg/d; (4) prevention group: went on giving the powder of pine needle 0.75 g/kg/d, 30 days in all; (5) high dose group: giving the powder of pine needle, 1.5 g/kg/d. The powder was dissolve din 10 ml distilled water and gave it with gavage method once a day. Took blood from the fasting rabbits on the fifteenth day after the administration to determine the levels of blood-lipid. The levels of total cholestorol, triglyceride, high density lipoprotein and low density lipoprotein were examined by CHOO-PAP method, GPO-PAP method, PTA-Mg^2+ deposition method and PVS one-step deposition method, respectively. The instrument used was Hitachi, Model 750 automatic biochemical analyzer.
# blood pressure = test: Clinical test of the composition to lower blood pressure; assay type: in vivo, human; settings: 44 cases per group, 20 days
# Experimental: All of them were diagnosed as hypertension according to the diagnostic standard of WHO. […] The patients of the control group were treated with Captopril. The patients of the control group were adults aged below 59, and their average age was 47±7.8. The patients stopped taking hypotensor a week before taking part in the test. […] If the blood pressure was not reduced to the normal scope, then a dose (0.5 g) was increased every 5 days. The crescendo every 5 days, and the maximal dose couldn't exceed 3 g each time and 3 times a day. The whole course of treatment was 20 days. 25 mg Captopril was given to the patients of the control group each time and three times a day. […] The crescendo every 5 days, and the maximal dose couldn't exceed 75 mg each time and three times a day. The whole course of treatment was 20 days too.
# The blood pressure before treatment: All the patients stopped taking hypotensor a week before treatment. Then the blood pressure was measured once a day continuously for 5 days. Took the mean of the 5 values (non same day) as the blood pressure before treatment.
# The blood pressure after treatment: Measured the blood pressure once a day after the treatment. Took the mean of the 5 values measured on the 16th, 17th, 18th, 19th, 20th day after the treatment as the blood pressure after the treatment. Examined the blood routine, the urine routine, the functions of liver, the renal function, the serum electrolyte (including K^+, Na^+, Cl^-), the blood-lipid, the blood sugar, the ECG of every day before and after the treatment.
# The criteria of therapeutic effect:
# As to the systolic hypertension, the systolic pressure was reduced more than 4 kpa. Ineffectiveness: The decrement of the blood pressure after the treatment didn't achieve the above standard.
SMILES,high density lipoprotein IR % (increasing rate) (blood-lipid),low density lipoprotein DR % (blood-lipid),total cholesterol DR % (decreasing rate) (blood-lipid),triglyceride DR % (blood-lipid),high density lipoprotein after treatment (blood-lipid; after HFD 0.83),triglyceride after treatment (blood-lipid; after HFD 1.87),low density lipoprotein after treatment (blood-lipid; after HFD 9.20),total cholesterol after treatment (blood-lipid; after HFD 26.67),Effectiveness (blood pressure),ineffectiveness (blood pressure),total effective rate (blood pressure),"remarkable effectiveness (blood pressure; composition 1.5-3 g t.i.d., captopril 25-75 mg t.i.d.)"
O=C(O[C@H]1[C@H](OC(=O)c2cccnc2)[C@@H](OC(=O)c2cccnc2)[C@H](OC(=O)c2cccnc2)[C@@H](OC(=O)c2cccnc2)[C@H]1OC(=O)c1cccnc1)c1cccnc1 [Inositol hexanicotinate],8.90%,37.38%,28.20%,16.03%,0.74,1.64,5.71,19.48,,,,
C[C@H](CS)C(=O)N1CCC[C@H]1C(=O)O [captopril],,,,,,,,,10 case number,8 case number,82%,26 case number
